# Assay results from patent US7858738B2, “Synthetic human peptides and pharmaceutical compositions comprising them for the treatment of systemic lupus erythematosus” (Yeda Research and Development Co., Ltd., priority 2001, dated 2010).
# Assays:
# PBL of SLE patients = experiment: Proliferation of PBL of SLE patients stimulated with the mitogen PHA; assay type: cell-based, human; details: PBL of one SLE patient; PHA 2 μg/ml; FIG. 5
# Experimental: To this end the peptides hCDR1 or hCDR3 were added to cultures of PBL of SLE patients that were stimulated with the mitogen phytohemagglutinin (PHA, 2 μg/ml).
# BALB/c-derived LNCs = experiment: In vivo inhibition of proliferation of LNC of BALB/c mice immunized with mCDR1; details: maximum % inhibition; 200 μg s.c. in PBS concomitant with immunization; LNC tested ten days later
# Experimental: To this end, BALB/c and SJL mice were immunized with mCDR1 and mCDR3, respectively. The immunizing murine peptides were injected (10 μg/mouse) in CFA intradermally in the hind footpads. Concomitant with the immunization, groups of BALB/c mice were injected subcutaneously (s.c.) with 200 μg in PBS of hCDR1 and groups of SJL mice were similarly injected with hCDR3. Ten days after the immunization, mice were sacrificed and their lymph nodes were harvested and the cells were tested for their ability to proliferate following triggering with the immunizing peptides. Briefly, LNCs of immunized mice (0.5×10^6/well) were cultured (in triplicates) in the presence of different concentrations (1-20 μg/well) of the murine immunizing peptides in enriched RPMI-1640 medium supplemented with 1% normal mouse serum. Following four days of incubation, ^3H-thymidine was added for additional 16 hours. Cells were then harvested and radioactivity was counted using a β-counter.
# The inhibition was calculated based on the proliferation of LNCs of mice that were not treated with the inhibitory peptides hCDR1 and hCDR3. It can be seen that hCDR1 and hCDR3 were capable of inhibiting the proliferative responses to the immunizing murine CDR peptides.
# [1] = system: splenocytes of (NZB×NZW)F1 mice; experiment: Cytokine pattern in supernatants of splenocyte cultures of treated (NZB×NZW)F1 mice (ELISA); assay type: in vivo; details: end of treatment (10 weekly s.c. injections, 300 μg)
# Experimental: Induction and treatment of experimental SLE. In order to induce experimental SLE, BALB/c mice were immunized with 1-2 μg of the human mAb 16/6Id and boosted 3 weeks later. For the prevention of experimental SLE, mice were given hCDR1 or hCDR3 (mCDR1 or revmCDR1 as control peptide in Example 12) intravenously (i.v.) or s.c. concomitant with the immunization, and were injected weekly thereafter for 5 weeks. Treatment of an established disease started three and a half months following disease induction with the 16/6Id, when clinical manifestations were already observed. In Example 12, mice received 10 weekly injections (i.v. or s.c.) of mCDR1 or revmCDR1 at a dose of 100 μg/mouse. Prevention and treatment of SLE-like disease in (NZB×NZW)F1 mice with the hCDR1 or mCDR1 peptide. For prevention of SLE, mice at the age of 2 months, before disease manifestations are observed, were injected s.c. with hCDR1 (or mCDR1 in Example 12, 250 μg/mouse) once a week for 10 weeks. To treat an established disease, mice at the age of 5-7 months were injected with hCDR1 (in Example 12, mCDR1 s.c., 250 μg/mouse) once a week for 10 weeks. Proliferative Responses. PBL were isolated from heparinized venous blood by Ficoll-Hypaque (Pharmacia) density-gradient centrifugation. […] Results are expressed as the mean thymidine incorporation in counts per minute (CPM) of triplicate culture±SD, or as stimulation index (S.I.; the ratio of mean CPM at the optimal concentration of the human 16/6Id to the mean CPM in the presence of medium alone). […] TGF-β was determined by an ELISA. […] The substrate solution used was TMB color Reagent (Helix Diagnostics, West Sacramento, Calif.), and enzyme activity was evaluated by using 570- and 630-nm filters. […] Proteinuria was measured semiquantitatively by using Combistix kit (Ames Division, Bayer Diagnostics, Newbury, U.K.). White blood cells (WBC, for leukopenia) were counted after a 10-fold dilution of heparinized blood in distilled water containing 1% acetic acid (vol/vol). […]
# [2] = system: lymph node cultures of BALB/c mice; experiment: Cytokines in supernatants of 16/6Id-stimulated lymph node cultures of BALB/c mice with experimental SLE; assay type: in vivo; details: after 10 treatment injections
# Experimental: Induction and treatment of experimental SLE. In order to induce experimental SLE, BALB/c mice were immunized with 1-2 μg of the human mAb 16/6Id and boosted 3 weeks later. For the prevention of experimental SLE, mice were given hCDR1 or hCDR3 (mCDR1 or revmCDR1 as control peptide in Example 12) intravenously (i.v.) or s.c. concomitant with the immunization, and were injected weekly thereafter for 5 weeks. Treatment of an established disease started three and a half months following disease induction with the 16/6Id, when clinical manifestations were already observed. In Example 12, mice received 10 weekly injections (i.v. or s.c.) of mCDR1 or revmCDR1 at a dose of 100 μg/mouse. Prevention and treatment of SLE-like disease in (NZB×NZW)F1 mice with the hCDR1 or mCDR1 peptide. For prevention of SLE, mice at the age of 2 months, before disease manifestations are observed, were injected s.c. with hCDR1 (or mCDR1 in Example 12, 250 μg/mouse) once a week for 10 weeks. To treat an established disease, mice at the age of 5-7 months were injected with hCDR1 (in Example 12, mCDR1 s.c., 250 μg/mouse) once a week for 10 weeks. Proliferative Responses. PBL were isolated from heparinized venous blood by Ficoll-Hypaque (Pharmacia) density-gradient centrifugation. All assays were performed, in triplicate, in flat-bottomed microtiter plates (Falcon, Becton Dickinson, Oxmard, Calif., USA) in which 2×10^5 PBL were cultured in enriched RPMI-1640 as described (Dayan et al., 2000). The PBL were exposed to various concentrations (0.1-40 μg/well) of the human anti-DNA 16/6Id mAb with and without the addition of the various CDR-based peptides at a concentration of at least 10-fold excess over that of the 16/6Id. Phytohemagglutinin (PHA; 2 μg/well) was used as a control for culture conditions at each experiment. The cultures were incubated in 7.5% CO2 at 37° C. for 6 days. Eighteen hours before the cells were harvested, [^3H]-thymidine (0.5μ Ci of 5 Ci/mmol) (Nuclear Research Center, Negev, Israel) was added to all cultures. Results are expressed as the mean thymidine incorporation in counts per minute (CPM) of triplicate culture±SD, or as stimulation index (S.I.; the ratio of mean CPM at the optimal concentration of the human 16/6Id to the mean CPM in the presence of medium alone). […] TGF-β was determined by an ELISA. […] The substrate solution used was TMB color Reagent (Helix Diagnostics, West Sacramento, Calif.), and enzyme activity was evaluated by using 570- and 630-nm filters. […] Proteinuria was measured semiquantitatively by using Combistix kit (Ames Division, Bayer Diagnostics, Newbury, U.K.). White blood cells (WBC, for leukopenia) were counted after a 10-fold dilution of heparinized blood in distilled water containing 1% acetic acid (vol/vol). […]
Sequence,inhibition of the proliferative responses of the PBL to the mitogen PHA (PBL of SLE patients),% Inhibition of the proliferation of BALB/c-derived LNCs to mCDR1 (BALB/c-derived LNCs) [%],INF-γ in supernatants of Con A-stimulated splenocytes ([1]; FIG. 13A),TGF-β in supernatants of non-stimulated splenocytes ([1]; FIG. 13C),"IL-10 in supernatants of Con A-stimulated splenocytes ([1]; to a lesser extent, FIG. 13B)","levels of TGF-β ([2]; FIG. 15D, 15E (spleen cells))","INF-γ in supernatants of 16/6Id stimulated lymph node cultures ([2]; both doses (200 and 300 μg), FIG. 15A)","TNF-α in supernatants of 16/6Id stimulated lymph node cultures ([2]; both doses (200 and 300 μg), FIG. 15B)","IL-10 in supernatants of 16/6Id stimulated lymph node cultures ([2]; both doses (200 and 300 μg), FIG. 15C)"
"YYCARGLLRGGWNDVDYYGMDV (Human) [hCDR3, peptide based on the CDR3 of the heavy chain of the human 16/6Id mAb]",could not inhibit,–,–,–,–,–,–,–,–
"GYYWSWIRQPPGKGEEWIG (Human) [hCDR1, 19-mer peptide based on the CDR1 of the heavy chain of the human 16/6Id mAb]",could not inhibit,55,down-regulated,increased secretion,down-regulated,up-regulated,down regulated,down regulated,down regulated
